These results are taken from patent US20220040133A1.

One data set has as its system Human H460 NSCLC cells. Description: Oral efficacy in human H460 NSCLC xenografts in mice. The class given is in vivo. Particulars: H460 xenograft, CD1-Nu/Nu mice; oral gavage 100 mg/kg on day 8, 15, 22, 29; vs 5% dextrose or untreated; FIG. 1. The method, then: Human H460 NSCLC cells were obtained from American Type Cell Culture (ATCC) (catalog no. HTB-177, Manassas, Va.). These cells tested negative for viral contamination using the Mouse Antibody Production (MAP) test, performed by Charles River Labs Molecular Division, upon the receipt of the tumor cells from ATCC. The tumor cells were maintained at 37° C. in a humidified 5% CO2 atmosphere in T225 tissue culture flasks containing 50 mL of Roswell Park Memorial Institute (RPMI)-1640 solution with 10% Fetal Bovine Serum (FBS) and 2 mM L-glutamine. Cells were split at a ratio of 1:10 every 2-3 days by trypsinization and resuspended in fresh medium in a new flask. Cells were harvested for experiments in the same way at 70-90% confluency.
CD1-Nu/Nu female mice, ˜4-6 weeks old were obtained from Charles River Laboratories. Mice were housed 5 to a cage in a micro-isolator room in the Department of Animal Laboratory Research of New York State University (SUNY) at Stony Brook. Light-dark cycles were 12 h each daily, with light from 7 a.m. to 7 p.m. […]
An acclimation period of 7 days was allowed between the arrival of the animal at the study site before tumor inoculation and experimentation. […] Tumor dimensions (length and width) were measured daily before, during and after treatment (using Vernier calipers) and the tumor volume was calculated using the prolate ellipsoid formula: (length×width^2)/2. […]
In general terms: Xenograft models place foreign cells or tissue in a host animal.

Data set [1] concerns BxPC3 pancreatic cancer cells. Description: Oral efficacy in human BxPC3 pancreatic cancer xenografts in mice. The class given is in vivo. Details: dose or concentration left out as unconfirmed. Particulars: BxPC3 xenograft, CD-1 nude mice; oral dose for 4 weeks; FIG. 2. The method, then: CD1-Nu/Nu female mice, ˜4-6 weeks old were obtained from Charles River Laboratories. Mice were housed 5 to a cage in a micro-isolator room in the Department of Animal Laboratory Research of New York State University (SUNY) at Stony Brook. Light-dark cycles were 12 h each daily, with light from 7 a.m. to 7 p.m. Food (Purina Rodent Chow) and water (distilled sterile-filtered water, pH 7) were provided ad libitum. Protocols and procedures were according to the rules of and approved by the SUNY Institutional Animal Care and Use Committee (IACUC).
An acclimation period of 7 days was allowed between the arrival of the animal at the study site before tumor inoculation and experimentation. Mice were inoculated subcutaneously (SC) in the right flank with 2×10^6 human H460 NSCLC or BxPC3 pancreatic cancer cells that were suspended in 0.1 mL of Dulbeco's Phosphate Buffered Salt (PBS) solution using a 1 cc syringe with a 27⅝ gauge needle. Tumor dimensions (length and width) were measured daily before, during and after treatment (using Vernier calipers) and the tumor volume was calculated using the prolate ellipsoid formula: (length×width^2)/2. Treatment with test or control articles began 8 days post tumor cell implantation when the tumor was approximately 300 mm^3.
A similar study was conducted in CD-1 nude mice (n=9) inoculated with 2×10^6 BxPC-3 cells. […]

The next data set concerns MFL2 cells. Description: Survival of C57Bl/6 mice with MFL2 syngeneic AML tumors. It is filed as in vivo. The method, then:
C57Bl/6 mice were injected into their tail veins with 1 million MFL2 cells (Pardee, T. S. et al., Experimental Hematology, 2011, 39, 473-485) on Day 0 and beginning on Day 7, upon confirmation of engraftment by bioluminescence imaging, were treated by gavage with CPI-613 (300 mg/kg daily except weekends of a 50 mg/mL solution in 0.05 N NaOH in 5% dextrose, adjusted to pH 7.5-8 with 4% glacial acetic acid; 1 animal for the chloroquine experiment), intraperitoneally (IP) with chloroquine (200 μL (ca. 100 mg/kg) daily except weekends of a 10 mg/mL solution in PBS; Chlr; 3 animals), orally with metformin (1 mg/mL in the drinking water with ad lib access), or with a combination of CPI-613 (300 mg/kg daily gavage as above) and either chloroquine (200 μL daily IP as above; 4 animals) or metformin (1 mg/mL ad lib in drinking water as above) and followed for survival. Control animals (1 animal in chloroquine experiment) received both oral and IP vehicles. P value was determined by log rank test.

Another data set relates to Baf3-p210 cells. Description: Survival of Balb/c mice with Baf3-p210 syngeneic ALL tumors. The class given is in vivo. Particulars: CPI-613 250 mg/kg gavage once daily combined with doxorubicin 3 mg/kg IP for three days; compared to doxorubicin alone; FIG. 4. The method, then:
Balb/c mice were injected into their tail veins with 1 million Baf3-p210 cells on Day 0 and beginning on Day 3, upon confirmation of engraftment by bioluminescence imaging, were treated with saline (control), doxorubicin (3 mg/kg IP in 200 μL PBS), or doxorubicin (3 mg/kg IP in 200 μL PBS) plus CPI-613 (250 mg/kg gavage of a 25 mg/mL solution of CPI-613 in 0.05 N NaOH in 5% dextrose, adjusted to pH 7.5-8 with 4% glacial acetic acid). and followed for survival. Doxorubicin was administered once daily for three consecutive days, and CPI-613 was administered once daily until death. P value was determined by log rank test.

The conditions of data set [2]: mouse, in vivo.
For data set [3] the following is noted: after IV dosing; Pardee et al. 2014; cited from earlier work.
In data set [4] the test system is metastatic pancreatic adenocarcinoma. Particulars: combined with modified FOLFIRINOX, cited from earlier work.
In data set [5] the test system is myelodysplastic syndrome (MDS), acute myeloid leukemia (AML), Burkitt lymphoma, and cutaneous T-cell lymphoma (CTCL). As to conditions: IV, days 1 and 4 of weeks 1, 2, 3 of a 4 week cycle, 840 mg/m^2 to 2940 mg/m^2 daily; cited from earlier work.
Data set [6] relates to relapsed or refractory T-cell lymphoma. As to conditions: IV, days 1-4, 8, 11, 15, 18 of a 4 week cycle, 2000 mg/m^2 to 2750 mg/m^2, combined with bendamustine 90 mg/m^2; cited from earlier work.

The term half-life denotes the time in which the quantity being followed falls by half.

Structures are written as SMILES.

`O=C(O)CCCCC(CCSCc1ccccc1)SCc1ccccc1` (stereo not drawn): the “tumor growth (tumor volume)” value is given as “grew much more slowly” with Human H460 NSCLC cells and “especially pronounced” in data set [1]. Also, the survival result in the data set with MFL2 cells (CPI-613 300 mg/kg gavage combined with chloroquine ca. 100 mg/kg IP daily except weekends, FIG. 3A) is on record as “significantly prolongs survival”; with MFL2 cells (CPI-613 300 mg/kg gavage combined with metformin 1 mg/mL in drinking water, FIG. 3B), “significantly prolongs survival”; with MFL2 cells (CPI-613 300 mg/kg gavage daily except weekends from Day 7, FIGS. 3A, 3B), “significantly prolongs survival”; in the data set on Baf3-p210 cells it was “significantly prolongs survival”. The “oral bioavailability (in words)” value in data set [2] is on record as “orally bioavailable”. Besides, the half-life in [3] is 1 to 2 h. Further, in data set [4] (IV 500 mg/m^2 on days 1 and 3 of a two week cycle), the objective response is listed as 11 of 18. In addition, the maximum tolerated dose in data set [4] (IV, days 1 and 3 of a two week cycle) is reported as 500 mg/m^2. Besides, the efficacy in patients result in [5] and in data set [6] was “showed efficacy” in each case.
